Legend:
[1] = tested on: LPAAT (lysophosphatidic acyltransferase); assay: inhibition of LPAAT activity; format: biochemical; conditions: LPAAT activated by IL-1
[2] = tested on: lungs of mice subjected to hemorrhage and resuscitation; assay: lung histology in murine hemorrhage and resuscitation model; format: in vivo, Balb/C mice
Description: (§1) This example illustrates a study of Lisofylline in a murine hemorrhage and resuscitation model. Male Balb/C mice, 8-12 weeks of age, were obtained from Harlan-Sprague Dawley (Indianapolis, Ind.). The animals were kept on a 12 hour light/dark cycle with free access to food and water. With this model, 30% of the calculated blood volume (approximately 0.55 ml for a 20 gram mouse) was withdrawn from a methoxyflurane anesthetized mouse by cardiac puncture over a 60-second period. The blood was collected into a heparinized syringe (5 units heparin), kept at 37° C. for one hour, then reinfused into the mouse through a retroorbital plexus injection. Using this method, one is able to resuscitate all hemorrhaged mice without complication. The total period of methoxyflurane anesthesia is less than 2 minutes in all cases. The mortality rate with this hemorrhage protocol is approximately 12%, with all deaths occurring over the 24 hours post hemorrhage, and most deaths occurring within the one hour post hemorrhage.
(§2) Mice were treated with 100 mg/kg Lisofylline in 0.2 ml PBS and given initially i.v., by retroorbital injection, then i.p. every 8 hours for a total of 9 doses. In hemorrhaged mice, the Lisofylline in PBS was added to the shed blood, and then given retroorbitally with the blood during the resuscitation phase. In hemorrhaged Balb/C mice (n=3), sacrificed by exsanguination 5 minutes after receiving Lisofylline with the blood used for resuscitation, serum levels of Lisofylline were 44±6 μg/ml.
At 3 days following hemorrhage and resuscitation or the initiation of Lisofylline treatment, mice were sacrificed and the pulmonary circulation flushed with chilled PBS injected into the right ventricle, as described above. The left lower lobe of the lungs was placed into formalin. Hematoxylin and eosin sections of the lungs were prepared, and examined in a blinded fashion by a pulmonary pathologist who was unaware of the group to which the individual animal belonged. Lungs from normal, unmanipulated Balb/C mice also were included as additional controls. The histopathologic findings were scored on a 0 to 3 scale (with 0 being normal and 3 being the most severe change) for the following variables: a) neutrophil infiltration into the pulmonary interstitium; b) intraaveolar hemorrhage; and c) interstitial edema.
Groups of 6 to 8 mice were used for each condition. For each experimental condition, the whole group of animals was prepared and then studied at the same time. Cells, mRNA, BAL supernatants, and plasma were obtained individually from eachanimal, and then were analyzed individually before calculating group data. Data are presented as mean±standard error of the mean (SEM) for each experimental group. One-way analysis of variance and the Student Newman Keuls test were used for comparisons between normal, nominal treated, hemorrhage/treated and hemorrhage data groups. A P value of less than 0.05 was considered significant.

IFN-γ = IFN-γ sandwich ELISA of BAL supernatants and plasma; format: in vivo, Balb/C mice
Description: as §1, §2
(§3) Three days following hemorrhage and resuscitation or the initiation of treatment with Lisofylline therapy in normal treated animals, mice were anesthetized with methoxyflurane and sacrificed by exsanguination through cardiac puncture into a heparinized (5 U) syringe. Normal mice, not subjected to hemorrhage/resuscitation or to treatment with Lisofylline, were included. Bronchoalveolar lavage (BAL) specimens, using 1.0 ml PBS injected and aspirated three times into the trachea and lungs, were obtained. Cells contained in the BAL were collected by centrifugation of BAL specimens. […] As determined by cytology, there was less than 3% contamination of alveolar macrophages with lymphocytes, neutrophils, or other mononuclear cell populations when BAL specimens are collected in normal Balb/C mice, but approximately 11±2% of isolated cells are neutrophils in mice subjected 3 days previously to 30% blood volume hemorrhage with resuscitation one hour later. […]
(§4) TNFα and IFN-γconcentrations in BAL supernatants and plasma were determined with sandwich ELISA assays using the monoclonal antibody pairs (i.e., unbiotinylated or biotinylated) MP6-XT3 for TNFα and XMG1.2 for IFN-γ(Pharmingen San Diego, Calif.). […]

TNFα = TNFα sandwich ELISA of BAL supernatants and plasma; format: in vivo, Balb/C mice
Description: as §1, §2, §3, §4

neutrophils in BAL = assay: percentage of neutrophils among BAL samples; format: in vivo, Balb/C mice; conditions: hemorrhage/resuscitated mice treated; 11±2% in untreated; p<0.05
Description: as §1, with “The total period of methoxyflurane anesthesia is less than 2 minutes in all cases. The mortality rate with this hemorrhage protocol is approximately 12%, with all deaths occurring over the 24 hours post hemorrhage, and most deaths occurring within the one hour post hemorrhage.” left out
as §3, with “syringe.” for “syringe. Normal mice, not subjected to hemorrhage/resuscitation or to treatment with Lisofylline, were included. Bronchoalveolar lavage (BAL) specimens, using 1.0 ml PBS injected and aspirated three times into the trachea and lungs, were obtained. Cells contained in the BAL were collected by centrifugation of BAL specimens.”

isolated rat kidneys = assay: ischemic isolated rat kidney reperfused with human neutrophils; conditions: Ischemia + neutrophils + Lisofylline
Description: This example illustrates an in vivo kidney model of hypoxic tissue injury using Lisofylline. Isolated rat kidneys were rendered ischemic and reperfused with human neutrophils (prepared as in example 4 above) according to the procedure in Linas et al;, Am. J. Physiol. 24:728-735, 1988. Lisofylline decreased injury in this ischemic isolated rat kidney model according to the data presented in Table 8 below wherein GFR refers to glomerular filtration rate and TNa refers to tubular sodium reabsorption.

[3] = hemorrhaged/resuscitated mice, 100 mg/kg every 8 hours, 9 doses, 3 days, not significantly different from normal
[4] = hemorrhaged/resuscitated mice treated for 72 hours
[5] = normal, unhemorrhaged mice treated

In the case of `C[C@@H](O)CCCCn1c(=O)c2c(ncn2C)n(C)c1=O` [Lisofylline, 1-R-(5-hydroxyhexyl)-3,7-dimethylxanthine], the “mode of LPAAT inhibition” value [1] is reported as “direct inactivator and competitive inhibitor”, the “number of neutrophils in the pulmonary interstitium” value ([2]; hemorrhaged mice treated, versus hemorrhaged/resuscitated untreated, 3 days) is reported as “significantly decreased” and the “degree of interstitial edema” value [2, 3] is reported as “minimal”. For the same compound, the “degree of intraaveolar hemorrhage” value [2, 3] was “minimal”, the “number of neutrophils in the lungs” value ([2]; normal mice treated, versus normal untreated) was “significantly increased” and the lung injury ([2]; rodent model of hemorrhage and reperfusion) was “completely prevented”. The “IFN-γ levels in BAL supernatants” value (IFN-γ; [4]) was 2 ± 2 pg/mL, the “IFN-γ levels in plasma” value (IFN-γ; [4]) was 173 ± 120 pg/mL and the “IFN-γ content of BAL supernatants” value (IFN-γ; [5]) was 16 ± 16 pg/mL. The IFN-γ in plasma (IFN-γ; [5]) was 66 ± 48 pg/mL, the “plasma TNFα concentrations” value (TNFα; hemorrhage/resuscitated/Lisofylline treated mice) was 218 ± 49 pg/mL and the “TNFα concentrations in BAL supernatants” value (TNFα; hemorrhaged/resuscitated mice treated) was 73 ± 45 pg/mL. For the same compound, the “plasma TNFα concentrations” value (TNFα; normal/Lisofylline treated mice) was 116 ± 36 pg/mL, the “TNFα in BAL supernatants” value (TNFα; unhemorrhaged mice treated, p<0.01 versus normal untreated) was 676±80 pg/mil and the “percentage of neutrophils among BAL samples” value (neutrophils in BAL) was 6±2%. The “TNa (tubular sodium reabsorption)” value (isolated rat kidneys; control 90%, ischemia + neutrophils 40%) was 78% (n = 6) and the “GFR (glomerular filtration rate)” value (isolated rat kidneys; control 250, ischemia + neutrophils 113) was 202 (n = 6).
